Experimental data: patent US20250197425A1, “2,6,9-TRISUBSTITUTED PURINES” (ASTRAZENECA AB, priority 2022, published 2025)
Converted amounts (≈) assume the structure as drawn.

Tests used:
CDK2:CCNE1 = CDK2:CCNE1 (Homo sapiens (Human), UniProt P24941); assay: NanoBRET assay in MCF-7 cells, CDK2; type: cell-based; settings: transfected MCF-7 cells, 2 hours, n = 1 or average
How it was run: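 In live MCF-7 cells, compound added followed by NanoBRET TE Tracer K-9 (stock 200 μM) for CDK2, 2 h at 37° C, 5% CO2.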

CDK1:CCNB1 = CDK1:CCNB1 (Homo sapiens (Human), UniProt P06493); assay: NanoBRET assay in MCF-7 cells, CDK1; type: cell-based; settings: NanoBRET, transfected MCF-7 cells, 2 hours; n = 1 or average; read-out: CDK1 IC50
How it was run: (§1)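 Intracellular target engagement was measured by NanoBRET ratio (460 nm/610 nm) in live MCF-7 cells transiently carrying CDK4:CCND1 (Tracer K-7, 100 μM stock) or CDK1:CCNB1 (Tracer K-9, 400 μM stock).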

CDK4:CCND1 = CDK4:CCND1 (Homo sapiens (Human), UniProt P11802); assay: NanoBRET assay in MCF-7 cells, CDK4; type: cell-based; settings: NanoBRET, transfected MCF-7 cells, 2 hours; n = 1 or average; read-out: CDK4 IC50
How it was run: as §1

[1] = tested on: NPM phosphorylation (Thr199, CDK2-cyclin E complex); assay: NPM phosphorylation imaging assay in MCF-7 cells; type: cell-based; settings: Homo sapiens, MCF7, 2 hours, 4N DNA cells
How it was run: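 MCF-7 cells were fixed, permeabilised and immunostained, then imaged for phospho-NPM (Thr199), a CDK2-cyclin E site. Analysis was gated on 4N-DNA cells by Hoechst staining. Signals were normalised to controls and fitted for IC50.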

[2] = tested on: POLR2A Ser2 phosphorylation (CDK9); assay: POLR2A Ser2 phosphorylation imaging assay in MCF-7 cells; type: cell-based; settings: Homo sapiens, MCF7, 2 h, MCF-7 cells, 2 hours; read-out: POLR2A Ser2 phosphorylation IC50
How it was run: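 MCF-7 cells were fixed, permeabilised and immunostained for POLR2A phospho-Ser2, then imaged by high-content microscopy. Levels were normalised to controls and IC50 values derived.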

MCF-7 cells = assay: Cellular proliferation EdU assay, MCF-7; type: cell-based; settings: Homo sapiens, MCF7, 48 h, EdU assay, two days; read-out: MCF-7 IC50
How it was run: (§2)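 MCF-7 (800 cells/well) and OVCAR3 (1200 cells/well) in RPMI with 10% FBS exposed to compounds for two days at 37 °C.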

OVCAR3 cells = assay: Cellular proliferation EdU assay, OVCAR3; type: cell-based, human; settings: Homo sapiens, OVCAR-3, 48 h, EdU assay, two days; read-out: OVCAR3 IC50
How it was run: as §2

[3] = CLint assessment in human hepatocytes (HH); type: in vitro ADME; parameters: unit not given here; settings: pH 7.4
Method: Samples were shaken at 800 rpm for 2 minutes and centrifuged at 4000 rpm for 20 minutes at 4° C. to pellet precipitated protein. The supernatant fraction was diluted 1:5 with deionized water, shaken at 1000 rpm for 2 minutes, and further diluted 1:1 with deionized water. Samples were analyzed by LC-MS/MS.

[4] = CLint assessment in human liver microsomes (HLM); type: in vitro ADME; settings: 1 μM
How it was run: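 Microsomes preincubated 8 min with NADPH, then compound added and incubated 30 min at 37° C. Remaining compound measured by LC-MS/MS. t1/2 and CLint calculated, with CLint scaled to incubation volume per mg microsomal protein.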

[5] = Aqueous thermodynamic solubility, shake-flask; type: physicochemical; settings: aqueous phosphate buffer, 25 °C, pH 7.4, aqueous buffer, thermodynamic from solid, phosphate buffer 0.1 M, pH 7.4, 24 hours
How it was run: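 After 24 h stirring at 25° C. in pH 7.4 phosphate buffer (0.1 M), solid-free supernatant from two centrifugations was quantified by UPLC/MS/MS after dilution in water. Compound was added as dried material after DMSO removal.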

Sequence of CDK1:CCNB1 (P06493 whole entry): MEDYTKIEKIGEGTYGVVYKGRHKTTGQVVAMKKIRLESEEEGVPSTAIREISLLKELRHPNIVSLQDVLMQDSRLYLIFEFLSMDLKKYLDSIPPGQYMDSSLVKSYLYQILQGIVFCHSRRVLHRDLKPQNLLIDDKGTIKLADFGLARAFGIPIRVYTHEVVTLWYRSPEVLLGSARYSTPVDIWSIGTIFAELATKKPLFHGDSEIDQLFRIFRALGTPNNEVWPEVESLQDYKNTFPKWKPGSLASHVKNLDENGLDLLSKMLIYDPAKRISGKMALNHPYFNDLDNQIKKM
Sequence of CDK1:CCNB1 (P14635 whole entry partner): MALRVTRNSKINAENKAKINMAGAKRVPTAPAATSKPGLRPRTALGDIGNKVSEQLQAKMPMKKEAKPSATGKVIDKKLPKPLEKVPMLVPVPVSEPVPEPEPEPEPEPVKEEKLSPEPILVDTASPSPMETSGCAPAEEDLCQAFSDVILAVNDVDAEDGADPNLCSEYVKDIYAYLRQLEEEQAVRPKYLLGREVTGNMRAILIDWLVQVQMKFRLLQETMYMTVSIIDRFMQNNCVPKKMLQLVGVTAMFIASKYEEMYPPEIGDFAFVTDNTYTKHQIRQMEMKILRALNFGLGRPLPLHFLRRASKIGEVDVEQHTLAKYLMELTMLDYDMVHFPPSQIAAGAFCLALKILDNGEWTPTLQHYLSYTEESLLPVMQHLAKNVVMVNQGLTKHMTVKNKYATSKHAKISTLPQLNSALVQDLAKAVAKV
Sequence of CDK4:CCND1 (P11802 whole entry): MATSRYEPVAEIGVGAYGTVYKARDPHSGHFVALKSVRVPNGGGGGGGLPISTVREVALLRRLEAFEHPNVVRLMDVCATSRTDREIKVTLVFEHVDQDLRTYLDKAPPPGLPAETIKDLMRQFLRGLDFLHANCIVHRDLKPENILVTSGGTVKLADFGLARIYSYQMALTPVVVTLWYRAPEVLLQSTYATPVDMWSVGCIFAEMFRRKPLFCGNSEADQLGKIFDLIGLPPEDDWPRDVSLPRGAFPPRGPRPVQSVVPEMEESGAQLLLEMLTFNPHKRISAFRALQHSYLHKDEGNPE
Sequence of CDK4:CCND1 (P24385 whole entry partner): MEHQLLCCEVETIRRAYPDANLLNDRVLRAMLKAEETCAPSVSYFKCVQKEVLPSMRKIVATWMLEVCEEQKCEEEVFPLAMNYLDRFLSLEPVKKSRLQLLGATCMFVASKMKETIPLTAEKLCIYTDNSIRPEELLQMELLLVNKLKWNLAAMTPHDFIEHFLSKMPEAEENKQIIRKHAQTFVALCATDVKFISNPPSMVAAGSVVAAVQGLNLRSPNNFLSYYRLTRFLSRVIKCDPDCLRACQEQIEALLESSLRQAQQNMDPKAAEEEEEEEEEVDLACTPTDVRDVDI

Which IC50 (CDK2:CCNE1) does the source give for `CC[C@H](CO)Nc1nc(N[C@H]2CCN(S(=O)(=O)NC)C2)c2ncn(CC)c2n1` [Example 47, (S)-3-((9-ethyl-2-(((R)-1-hydroxybutan-2-yl)amino)-9H-purin-6-yl)amino)-N-methylpyrrolidine-1-sulfonamide] here?
Its IC50 is 35 nM.

What about the IC50 (CDK1:CCNB1) of the same compound?
Its IC50 is 562 nM.

What about the IC50 (CDK4:CCND1) of the same compound?
Its IC50 is 7.4 µM.

And the IC50 [1]?
Its IC50 is 152 nM.

What about the IC50 [2] of the same compound?
The IC50 was over 30 µM.

And the IC50 (MCF-7 cells)?
Its IC50 is 705 nM.

And the IC50 (OVCAR3 cells)?
The IC50 was 185 nM.

What about the microsomal CLint at 1 μM [3] of the same compound?
The microsomal CLint at 1 μM was under 1.

What about the “HLM CLint” value [4] of the same compound?
The value was 26 µL/min/mg.

What about the solubility at 24 h [5] of the same compound?
Its solubility at 24 h is 253 µM (≈ 104 µg/mL).
